Patent US9259416B2, “Pyrazolone compounds useful for treatment of cerebrovascular disorders associated with ischemic stroke” (MITSUBISHI TANABE PHARMA CORPORATION, priority 2004, dated 2016)

Key:
[1] = tested on: rat middle cerebral artery occlusion and reperfusion model; experiment: Cerebral edema in rat middle cerebral artery occlusion and reperfusion model; assay type: in vivo, Wistar rats
Description: After eight weeks to nine weeks old Wistar rats (220 to 260 g) were subjected to inhalation anesthesia with halothane, the inhalation anesthesia with 1% halothane (anesthesia; nitrous oxide: oxygen=7:3) was continued while fixing them in a dorsal position and maintaining their body temperature at around 37° C. In an infusion administration group and a bolus+infusion administration group, a catheter was placed in the femora vein. The right common carotid artery, external carotid artery and internal carotid artery were exposed and the common carotid artery and external carotid artery were ligated in order to occlude the middle cerebral artery. From the common carotid artery, a No. 4 nylon suture (plug) was inserted to occlude the middle cerebral artery. Three hours after occlusion of the middle cerebral artery, the plug was taken out from the common carotid artery and perfusion of the middle cerebral artery was resumed, and then the administration was started as in Table 3. Decapitation and surgical removal of the brain were performed three hours after reperfusion. After separation of the right and left cerebral cortex, the wet weight was measured. After drying at 130° C. for 24 hours, the dry weight was determined. A percentage water content was calculated in accordance with the following equation: (wet weight (g)−dry weight (g))/wet weight (g)×100. The constitution and dose of each group are shown below in Table 3. It is to be noted that to the drug administered groups other than the control group, Edaravone was administered as a drug in accordance with Table 3.

[2] = tested on: rat middle cerebral artery occlusion; experiment: Dose response test with rat (middle cerebral artery occlusion/reperfusion, infarct); assay type: in vivo, Crj:CD(SD) male rats
Description: Seven weeks to eight weeks old Crj:CD(SD) male rats (190 to 250 g) were subjected to anesthesia with isoflurane, and were fixed in a dorsal position with their body temperature kept at around 37° C. A catheter for drug administration was placed in the cervical vein. The right common carotid artery, external carotid artery and internal carotid artery were exposed and the common carotid artery and external carotid artery were ligated in order to occlude the middle cerebral artery. From the branch of the external carotid artery and the internal carotid artery, a silicone-coated No. 4 nylon suture (plug) was inserted to occlude the middle cerebral artery. Two hours after occlusion of the middle cerebral artery, the plug was taken out and perfusion of the middle cerebral artery was resumed, and then the administration was started as in Table 5. Decapitation and surgical removal of the brain were performed 24 hours after reperfusion. Five brain sections each having a thickness of 2 mm (from the bregma part, from 2 mm before and behind parts of the bregma, and from 4 mm before and behind parts of the bregma) were prepared. The brain sections were stained with 1 w/v % 2,3,5-triphenyltetrazolium chloride, and the infarct area was measured to calculate the infarct volume. […]

[3] = tested on: monkey middle cerebral artery occlusion; experiment: Dose response test with monkey (middle cerebral artery occlusion, infarct); assay type: in vivo, croo monkey; conditions: Edaravone administered groups (0.1-0.4 mg/kg loading + 0.5-2.0 mg/kg/hr maintenance i.v.), 28 hours after occlusion
Description: A croo monkey (3 years to 5 years old) was subjected to […], and then its body temperature was kept at around 37° C. The middle cerebral artery at around the branch of the left internal carotid artery was exposed, and the middle cerebral artery was occluded by electrocoagulation. Then, the administration was started as in Table 6. 28 hours after occlusion (just after administration), the whole brain was removed under deep anesthesia by excess pentobarbital administration, and coronary brain sections each having a thickness of 4 mm were cut out of the forehead. The brain sections were stained with 1 w/v % 2,3,5-triphenyltetrazolium chloride, and the infarct area was measured to calculate the infarct volume.
In the drug administered groups other than the solvent group, Edaravone was used as the drug and this was administered as in Table 6.

rat serum proteins = conditions: cited from earlier work
human serum proteins = conditions: cited from earlier work

SMILES: CC1=NN(c2ccccc2)C(=O)C1 [Edaravone, 1-phenyl-3-methyl-2-pyrazolin-5-one]
- increase in percentage water content of cortex ([1]; bolus group, 3 mg/kg i.v. immediately after reperfusion, brain removed 3 h after reperfusion): almost equal
- increase in percentage water content of cortex ([1]; bolus+infusion group, 0.2 mg/kg i.v. + 1 mg/kg/hr i.v. for 2.75 hours): lowest
- increase in percentage water content of cortex ([1]; infusion group, 1 mg/kg/hr i.v. for 3 hours after reperfusion): almost equal
- infarct area ([2]; 0.1 mg/kg+0.5 mg/kg/hr i.v., P<0.05 vs physiological saline): significantly decreased
- infarct volume compared with control group ([2]; Edaravone administered groups (0.05-0.2 mg/kg loading + 0.25-1.0 mg/kg/hr maintenance i.v.), 24 hours after reperfusion): small
- infarct volume compared with control group [3]: small
- binding ratio with serum proteins (rat serum proteins): 85.8%
- binding ratio with serum proteins (human serum proteins): 91.9%
